Data as given in patent publication US9670247B2, “Contraceptive agents” (The University of Kansas, priority 2012, dated 2017).

Experiments:
[1] = molecular target: hERG (Homo sapiens, UniProt Q12809)
[2] = test system: Na,K-ATPase α4 isoform; conditions: higher than that of the ubiquitous α1 isoform; cited from earlier work

Sequence of hERG (Q12809 whole entry, canonical isoform): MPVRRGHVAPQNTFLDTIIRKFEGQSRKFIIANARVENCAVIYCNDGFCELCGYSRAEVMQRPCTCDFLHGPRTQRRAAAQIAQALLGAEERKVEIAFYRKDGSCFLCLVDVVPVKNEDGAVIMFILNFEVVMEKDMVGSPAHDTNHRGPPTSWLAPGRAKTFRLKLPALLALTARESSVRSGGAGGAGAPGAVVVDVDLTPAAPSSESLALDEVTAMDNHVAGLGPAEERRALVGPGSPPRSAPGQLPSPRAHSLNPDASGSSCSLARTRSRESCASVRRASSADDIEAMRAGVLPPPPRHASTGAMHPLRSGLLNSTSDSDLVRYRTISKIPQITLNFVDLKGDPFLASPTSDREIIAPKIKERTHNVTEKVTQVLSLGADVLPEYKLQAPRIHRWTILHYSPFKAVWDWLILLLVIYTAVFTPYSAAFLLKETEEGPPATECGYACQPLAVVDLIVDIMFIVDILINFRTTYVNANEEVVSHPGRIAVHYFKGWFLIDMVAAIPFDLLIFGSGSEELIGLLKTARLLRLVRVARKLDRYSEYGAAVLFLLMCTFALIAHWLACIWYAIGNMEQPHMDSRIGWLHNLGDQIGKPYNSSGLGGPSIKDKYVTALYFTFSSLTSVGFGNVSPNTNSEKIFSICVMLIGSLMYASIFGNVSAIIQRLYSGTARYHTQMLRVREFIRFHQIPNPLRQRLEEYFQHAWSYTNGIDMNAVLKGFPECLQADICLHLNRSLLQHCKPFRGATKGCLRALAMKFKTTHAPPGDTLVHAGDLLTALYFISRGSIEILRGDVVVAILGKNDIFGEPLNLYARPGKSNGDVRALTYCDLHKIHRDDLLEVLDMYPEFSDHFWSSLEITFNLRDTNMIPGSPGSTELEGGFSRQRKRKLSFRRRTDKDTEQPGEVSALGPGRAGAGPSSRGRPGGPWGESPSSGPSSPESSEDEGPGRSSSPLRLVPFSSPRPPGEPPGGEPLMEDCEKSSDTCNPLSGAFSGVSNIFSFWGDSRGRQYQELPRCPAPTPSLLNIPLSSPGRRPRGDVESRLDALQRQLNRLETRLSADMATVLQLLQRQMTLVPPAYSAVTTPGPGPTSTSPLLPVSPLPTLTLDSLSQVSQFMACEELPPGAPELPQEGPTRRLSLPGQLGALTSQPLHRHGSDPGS

SMILES | melting point [°C] | effect on hERG [1] | affinity for ouabain of α4 relative to the α1 isoform [2]
COCO[C@@H]1[C@H]2OC(C)(C)O[C@H]2[C@H](O[C@H]2C[C@H]3OC(C)(C)OC[C@]34C3C(CC[C@]4(O)C2)[C@@]2(O)CC[C@H](C(O)CO)[C@@]2(C)C[C@H]3OCOC)O[C@H]1C (stereo partly drawn) [Compound 3, (3S,3aR,5R,5bR,9aR,11S,12aS,14bS)-3-(1,2-dihydroxyethyl)-5-(methoxymethoxy)-11-(((3aR,4R,6S,7S,7aR)-7-(methoxymethoxy)-2,2,6-trimethyltetrahydro-3aH-[1,3]dioxolo[4,5-c]pyran-4-yl)oxy)-3a,8,8-trimethylhexadecahydro-1H-cyclopenta[7,8]phenanthro[4,4a-d][1,3]dioxine-12a,14b-diol] | 119 to 121 |  | 
COC(=O)Cn1cc([C@H]2CCC3C4CC=C5C[C@@H](O)CC[C@]5(C)C4CC[C@@]32C)nn1 (stereo partly shown) | 221 to 223 |  | 
COCO[C@H]1C[C@H]2OC(C)(C)OC[C@]23C2C(CC[C@]3(O)C1)[C@@]1(OCOC)CC[C@H](CO)[C@@]1(C)C[C@H]2OCOC (stereo partly drawn) [Compound 22, (3S,3aR,5R,5bR,9aR,11S,12aS,14bS)-3-(hydroxymethyl)-5,11,14b-tris(methoxymethoxy)-3a,8,8-trimethylhexadecahydro-1H-cyclopenta[7,8]phenanthro[4,4a-d][1,3]dioxin-12a-ol] | 154 to 158 |  | 
C[C@@H]1O[C@@H](O[C@H]2C[C@@H](O)[C@]3(CO)[C@H]4[C@H](O)C[C@]5(C)[C@@H](C6=CC(=O)OC6)CC[C@]5(O)[C@@H]4CC[C@]3(O)C2)[C@H](O)[C@H](O)[C@H]1O [ouabain] |  | inhibited hERG activity | 10,000 fold

The next lines start with results.

melting point [°C] | SMILES | effect on hERG [1] | affinity for ouabain of α4 relative to the α1 isoform [2]
126 to 129 | COCO[C@@H]1[C@H]2OC(C)(C)O[C@H]2[C@H](O[C@H]2C[C@H]3OC(C)(C)OC[C@]34C3C(CC[C@]4(O)C2)[C@@]2(O)CC[C@H](CO)[C@@]2(C)C[C@H]3OCOC)O[C@H]1C (stereo partly drawn) [Compound 10, (3S,3aR,5R,5bR,9aR,11S,12aS,14bS)-3-(hydroxymethyl)-5-(methoxymethoxy)-11-(((3aR,4R,6S,7S,7aR)-7-(methoxymethoxy)-2,2,6-trimethyltetrahydro-3aH-[1,3]dioxolo[4,5-c]pyran-4-yl)oxy)-3a,8,8-trimethylhexadecahydro-1H-cyclopenta[7,8]phenanthro[4,4a-d][1,3]dioxine-12a,14b-diol] |  | 
129 to 135 | COCO[C@H]1C[C@H]2OC(C)(C)OC[C@]23C2C(CC[C@]3(O)C1)[C@@]1(OCOC)CC[C@H](C=O)[C@@]1(C)C[C@H]2OCOC (stereo partly shown) |  | 
286 to 287 | C[C@]12CCC3C(CC=C4C[C@@H](O)CC[C@@]43C)[C@@H]1CC[C@@H]2C1=CC(=O)OC1 (stereo in doubt) |  | 
195 to 197 | CC(C)[C@H](N)C(=O)O[C@H]1CC[C@@]2(C)C(=CCC3C2CC[C@@]2(C)C3CC[C@@H]2c2cn(Cc3ccccc3)nn2)C1 (stereo partly shown) |  | 
97 to 99 | COCO[C@@H]1[C@H]2OC(C)(C)O[C@H]2[C@H](O[C@H]2C[C@H]3OC(C)(C)OC[C@]34C3C(CC[C@]4(O)C2)[C@@]2(O)CC[C@H](C#N)[C@@]2(C)C[C@H]3OCOC)O[C@H]1C (stereo partly drawn) [Compound 11, (3S,3aR,5R,5bR,9aR,11S,12aS,14bS)-12a,14b-dihydroxy-5-(methoxymethoxy)-11-(((3aR,4R,6S,7S,7aR)-7-(methoxymethoxy)-2,2,6-trimethyltetrahydro-3aH-[1,3]dioxolo[4,5-c]pyran-4-yl)oxy)-3a,8,8-trimethylhexadecahydro-1H-cyclopenta[7,8]phenanthro[4,4a-d][1,3]dioxine-3-carbonitrile] |  | 
